Laboratory results: PMC11257762, “Psoralen Isolated from the Roots of Dorstenia psilurus Welw. Modulate Th1/Th2 Cytokines and Inflammatory Enzymes in LPS-Stimulated RAW 264.7 Macrophages” (Mediators of Inflammation, 2024)
≈ marks a conversion by molar mass, not a printed value. Where two headings read alike, the source gives them in different places. Marks after values point to notes of the source that are not given here. Values belong to the compound of their own block, whether it stands above or below them.

What was measured:
[1] = test system: NO production in LPS-activated RAW 264.7 macrophages; test: Inhibition of nitric oxide (NO) production in LPS-activated RAW 264.7 macrophages (Griess reagent); assay type: cell-based, mouse; conditions: for IC50: Mus musculus
Method: The mouse-derived macrophage cell line RAW 264.7, purchased from the American Type Culture Collection (ATCC TIB-71, Rockville, MD, USA), was cultured in DMEM medium supplemented with 10% FCS and 1% penicillin/streptomycin/fungizone (PSF) under conventional cell culture conditions at a temperature of 37°C and a carbon dioxide concentration of 5% in a controlled humid atmosphere. Routine maintenance in culture (passage) was performed following ATCC instructions.
The RAW 264.7 macrophage cells were introduced into 96 well microtiter plates at a density of 2 × 10^5 cells/mL. Subsequently, cells were subjected to activation through incubation in a medium consisting of 1 µg/mL LPS alone, acting as the control. Furthermore, lipopolysaccharide was combined with varying concentrations of samples dissolved in DMSO (concentration ranges were 200–1.56 µg/mL for extracts and fractions and 100–0.78 µM for compounds). […] The quantity of nitric oxide released from macrophages was assessed using Griess reagent as previously described. All experiments for the measurement of nitric oxide inhibition were conducted three times in triplicate.

15-LOX from G. max = biological target: T1, 15-LOX from G. max (Glycine max, UniProt P08170); test: Soybean LOX inhibition assay (ferrous oxidation-xylenol orange); assay type: biochemical; conditions: linoleic acid 140 µM, pH 7.4, 25°C, mean ± SD
T1 sequence (P08170 1-839): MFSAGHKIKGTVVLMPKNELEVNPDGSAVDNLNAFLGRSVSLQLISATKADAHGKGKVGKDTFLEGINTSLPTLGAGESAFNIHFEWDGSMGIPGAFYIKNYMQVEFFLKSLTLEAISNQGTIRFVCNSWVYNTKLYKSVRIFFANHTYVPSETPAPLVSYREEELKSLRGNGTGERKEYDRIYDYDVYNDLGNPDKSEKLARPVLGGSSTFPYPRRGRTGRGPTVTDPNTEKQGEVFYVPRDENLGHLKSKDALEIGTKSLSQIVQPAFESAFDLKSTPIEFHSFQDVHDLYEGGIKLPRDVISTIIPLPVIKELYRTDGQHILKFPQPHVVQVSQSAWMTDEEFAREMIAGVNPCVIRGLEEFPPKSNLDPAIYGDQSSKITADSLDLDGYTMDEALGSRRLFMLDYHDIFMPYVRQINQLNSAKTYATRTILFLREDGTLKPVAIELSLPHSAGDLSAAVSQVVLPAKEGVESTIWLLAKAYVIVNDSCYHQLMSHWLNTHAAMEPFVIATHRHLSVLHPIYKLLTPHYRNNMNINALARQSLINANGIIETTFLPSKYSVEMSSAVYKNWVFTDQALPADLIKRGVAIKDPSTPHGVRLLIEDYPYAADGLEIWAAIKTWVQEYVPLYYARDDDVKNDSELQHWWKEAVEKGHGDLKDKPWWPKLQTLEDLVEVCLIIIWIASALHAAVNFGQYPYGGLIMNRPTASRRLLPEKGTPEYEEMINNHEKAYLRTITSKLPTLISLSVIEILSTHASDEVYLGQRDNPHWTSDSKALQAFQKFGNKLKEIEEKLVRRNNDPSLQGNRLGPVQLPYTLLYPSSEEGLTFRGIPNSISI
Method: The assay was conducted following a previously described methodology with minor adjustments. The assay is based on the measurement of the formation of the Fe3+/xylenol orange complex on a spectrophotometer at a wavelength of 560 nm. 15-LOX from G. max was incubated with samples or standard inhibitors at a temperature of 25°C for 5 min. The concentration ranges of the samples ranged from 200 to 1.56 µg/mL for extracts and fractions and from 100 to 0.78 µM for compounds. Subsequently, linoleic acid (at a final concentration of 140 µM) in Tris–HCl buffer (at a pH of 7.4 and a concentration of 50 mM), and the mixture was incubated at a temperature of 25°C for 20 min in the absence of light. The assay was concluded by adding 100 µL of FOX reagent, which consisted of sulfuric acid (at a concentration of 30 mM), xylenol orange (at a concentration of 100 µM), and iron (II) sulfate (at a concentration of 100 µM) in a methanol/water mixture (at a ratio of 9 : 1). For control, only the LOX solution and buffer were pipetted into the wells. The blanks (background) contained the LOX enzyme during incubation, but the substrate (linoleic acid) was added after the addition of the FOX reagent. […] The percentage inhibition was calculated using the following formula: % inhibition = ((Acontrol–Ablank)−(Asample−Ablank)/(Acontrol−Ablank)) ×100. Here, Acontrol represents the absorbance of the control well, Ablank represents the absorbance of the blank well, and Asample represents the absorbance of the sample well.

COX-1 = biological target: T2, COX-1 (Mus musculus, UniProt P22437); test: Fluorometric COX activity assay in LPS-stimulated RAW 264.7 cells, COX-1; assay type: cell-based; conditions: LPS 0.1 µg/mL, 24 hr, untreated control 95.19 µU/mg
T2 construct: endogenous in cells; host or cells: RAW 264.7 macrophages, LPS-stimulated
T2 sequence (P22437 27-602): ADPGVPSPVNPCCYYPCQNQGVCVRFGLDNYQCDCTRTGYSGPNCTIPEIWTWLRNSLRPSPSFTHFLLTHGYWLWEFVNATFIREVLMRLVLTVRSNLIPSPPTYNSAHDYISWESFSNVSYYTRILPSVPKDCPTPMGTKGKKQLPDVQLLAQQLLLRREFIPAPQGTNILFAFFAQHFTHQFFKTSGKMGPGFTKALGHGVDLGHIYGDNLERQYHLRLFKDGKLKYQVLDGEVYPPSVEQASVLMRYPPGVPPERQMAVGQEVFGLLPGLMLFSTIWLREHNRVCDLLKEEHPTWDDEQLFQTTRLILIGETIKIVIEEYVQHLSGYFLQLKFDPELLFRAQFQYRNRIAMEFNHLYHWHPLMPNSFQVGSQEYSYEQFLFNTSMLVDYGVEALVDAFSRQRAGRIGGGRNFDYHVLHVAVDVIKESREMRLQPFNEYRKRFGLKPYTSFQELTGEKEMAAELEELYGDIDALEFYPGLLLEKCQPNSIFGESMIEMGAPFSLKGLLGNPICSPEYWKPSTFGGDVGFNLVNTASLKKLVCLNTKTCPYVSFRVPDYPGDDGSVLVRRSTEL
Method: (§1) Evaluation of COX-1 and COX-2 enzyme activity was performed using the fluorometric COX activity assay kit provided by Biovision. RAW 264.7 cells were cultured at a density of 2 × 10^5 cells/mL in a 48-well microplate and allowed to adhere for a period of 24 hr. Subsequently, cells were treated with LPS at a concentration of 0.1 µg/mL and psoralen at concentrations of 5, 20, and 50 µM. The cyclooxygenase enzyme activity assay was performed after a 24 hr incubation period. To initiate the assay, cells were removed using TNE buffer containing Tris (40 mM), NaCl (150 mM), and EDTA (1 mM), followed by a washing step using 1x PBS. Cells were then resuspended in 1 mL of 1x PBS, transferred to a 1.5 mL tube, and subjected to centrifugation at 500x g for 3 min. The resulting pellet was resuspended in 0.5 mL of lysis buffer containing a protease inhibitor cocktail, followed by vortexing and incubation at 4°C for 5 min. Subsequently, the cell lysate was centrifuged at 12,000 x g for 3 min, and the supernatant was collected for the COX activity assay. The fluorometric cyclooxygenase activity assay kit provided by Biovision was utilized according to the manufacturer's instructions to assess COX activity. This assay incorporates specific inhibitors for COX-1 and COX-2 enzymes, allowing differentiation of their respective activities and those of other peroxidases.

COX-2 = biological target: T3, COX-2 (Mus musculus, UniProt Q05769); test: Fluorometric COX activity assay in LPS-stimulated RAW 264.7 cells, COX-2; assay type: cell-based; conditions: LPS 0.1 µg/mL, 24 hr, untreated control 113.81 µU/mg
T3 construct: the supernatant was collected for the COX activity assay; endogenous in cells; host or cells: RAW 264.7 macrophages, LPS-stimulated
T3 sequence (Q05769 18-604): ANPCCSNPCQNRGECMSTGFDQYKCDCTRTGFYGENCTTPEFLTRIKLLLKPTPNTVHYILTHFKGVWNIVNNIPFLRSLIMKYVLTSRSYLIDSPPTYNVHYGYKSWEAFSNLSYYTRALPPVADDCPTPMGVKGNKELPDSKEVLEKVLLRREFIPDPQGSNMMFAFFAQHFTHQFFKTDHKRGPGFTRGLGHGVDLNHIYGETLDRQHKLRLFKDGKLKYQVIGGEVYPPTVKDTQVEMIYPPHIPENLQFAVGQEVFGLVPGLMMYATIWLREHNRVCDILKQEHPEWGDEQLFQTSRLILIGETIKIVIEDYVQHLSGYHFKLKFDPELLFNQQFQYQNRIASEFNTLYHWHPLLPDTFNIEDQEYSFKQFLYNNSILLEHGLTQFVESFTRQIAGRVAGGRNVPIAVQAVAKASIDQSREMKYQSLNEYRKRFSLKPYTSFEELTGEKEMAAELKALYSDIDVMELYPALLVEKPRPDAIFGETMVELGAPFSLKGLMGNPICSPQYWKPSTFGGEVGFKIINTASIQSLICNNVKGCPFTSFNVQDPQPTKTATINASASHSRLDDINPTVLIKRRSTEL
Method: as §1

IFN-γ = test: Th1/Th2 cytokine measurement (cytometric bead array) in LPS-stimulated RAW 264.7 macrophages, IFN-γ; assay type: cell-based, mouse; conditions: 50 μM, 24 hr, LPS-induced RAW 264.7; reduced from 1.12 pg/mL
Method: (§2) RAW 264.7 cells were cultured at a concentration of 2 × 10^5 cells/mL in a 48-well microplate and allowed to adhere for 24 hr. Subsequently, they were subjected to lipopolysaccharide (LPS) treatment at a concentration of 0.1 µg/mL, along with psoralen at concentrations of 5, 20, and 50 µM. […] Following an incubation period of 24 hr, the supernatant was collected, and the levels of pro-inflammatory Th1 cytokines (IFN-γ, TNF-α, and IL-2), as well as anti-inflammatory Th2 cytokines (IL-4, IL-6, and IL-10) were quantified. The experimental protocol adhered to the manufacturer's guidelines and utilized the BD TM cytometric beads array human Th1/Th2 cytokine kit (BD-Biosciences). Data acquisition was performed using a BD LSR FortessaTM cell analyzer flow cytometer.

TNF-α = test: Th1/Th2 cytokine measurement (cytometric bead array) in LPS-stimulated RAW 264.7 macrophages, TNF-α; assay type: cell-based, mouse; conditions: 50 μM, 24 hr, LPS-induced RAW 264.7; reduced from 4,418.86 pg/mL
Method: as §2

IL-2 = test: Th1/Th2 cytokine measurement (cytometric bead array) in LPS-stimulated RAW 264.7 macrophages, IL-2; assay type: cell-based, mouse; conditions: 50 μM, 24 hr, LPS-induced RAW 264.7; reduced from 1.032 pg/mL
Method: as §2

IL-4 = test: Th1/Th2 cytokine measurement (cytometric bead array) in LPS-stimulated RAW 264.7 macrophages, IL-4; assay type: cell-based, mouse; conditions: 50 μM, 24 hr, LPS-induced RAW 264.7; increased from 0.81 pg/mL
Method: as §2

IL-6 = test: Th1/Th2 cytokine measurement (cytometric bead array) in LPS-stimulated RAW 264.7 macrophages, IL-6; assay type: cell-based, mouse; conditions: 50 μM, 24 hr, LPS-induced RAW 264.7; increased from 156.96 pg/mL
Method: as §2

IL-10 = test: Th1/Th2 cytokine measurement (cytometric bead array) in LPS-stimulated RAW 264.7 macrophages, IL-10; assay type: cell-based, mouse; conditions: 50 μM, 24 hr, LPS-induced RAW 264.7; increased from 0.857 pg/mL
Method: as §2

[2] = test system: NO production in LPS-stimulated RAW 264.7 murine macrophages; set-up: method as in Choi et al. [47]; conditions: isolated from Trachelospermum jasminoides, ref Choi et al. [47]; cited from earlier work
[3] = RAW264.7, LPS 1 µg/mL activated RAW 264.7 macrophage cells, mean ± SD, read-out: NO inhibition IC50

IC50 (15-LOX from G. max): 18.4 µM
COX-1 activity (COX-1; psoralen 5 μM): 44.35 µU/mg
COX-1 activity (COX-1; psoralen 20 μM): 31.25 µU/mg
COX-1 activity (COX-1; psoralen 50 μM): 22.73 µU/mg
COX-2 activity (COX-2; psoralen 5 μM): 88.33 µU/mg
COX-2 activity (COX-2; psoralen 20 μM): 58.1 µU/mg
COX-2 activity (COX-2; psoralen 50 μM): 43.84 µU/mg
Compound: O=c1ccc2cc3ccoc3cc2o1 [(1), psoralen]
IC50 [1, 3]: 1.19 ± 0.45 µg/mL (≈ 6.39 µM)
IFN-γ level (IFN-γ): 0.56 pg/mL
TNF-α level (TNF-α): 1,032.66 pg/mL
IL-2 level (IL-2): 0.551 pg/mL
IL-4 level (IL-4): 2.22 pg/mL
IL-6 level (IL-6): 255.31 pg/mL
IL-10 level (IL-10): 1.122 pg/mL

Compound: CC[C@H](CC[C@@H](C)[C@H]1CC[C@H]2[C@@H]3CC=C4C[C@@H](O[C@@H]5O[C@H](CO)[C@@H](O)[C@H](O)[C@H]5O)CC[C@]4(C)[C@H]3CC[C@]12C)C(C)C [(3), β-sitosterol glucoside]
IC50 [1, 3]: 26.1 ± 3.01 µg/mL (≈ 45.3 µM)
IC50 (15-LOX from G. max): 25.3 µM
Reduction of NO production [2]: 72.8%

Compound: COc1ccc2c(c1)c(CC(=O)O)c(C)n2C(=O)c1ccc(Cl)cc1 [Indomethacin, indomethacin, reference compound]
IC50 ([1]; RAW264.7, read-out: NO inhibition IC50): 3.79 ± 0.88 µg/mL (≈ 10.6 µM)

15-LOX inhibition IC50 (15-LOX from G. max): 35.57 ± 2.35^j μg/mL
Compound: octadecanyl-3[4-hydroxyphenyl]-prop-2-enoate [(2)]
NO inhibition IC50 ([1]; LPS 1 µg/mL activated RAW 264.7 macrophage cells, mean ± SD): 39.41 ± 2.29^g μg/mL
